# ChEMBL document CHEMBL6177951, “Synthesis and anti-MRSA activity of quaternized small molecule antimicrobial peptide mimics based on norharmane” (Eur J Med Chem, 2025)
# Active and inactive are the calls of the source. No cut-off for these calls is given here.
# Tests used:
# Staphylococcus aureus [1] = assay: Induction of ROS generation in methicillin-resistant Staphylococcus aureus assessed as fold increase in fluorescence intensity at 2 ug/ml incubated for 8 hrs by DCFH-DA dye analysis; assay type: functional; settings: dose 2 µg/ml
# Staphylococcus aureus [2] = assay: In vivo antibacterial activity against methicillin-resistant Staphylococcus aureus infected in female Kunming mouse skin infection model assessed as log reduction in bacterial load at 20 mg/kg measured after 48 hrs (reference value: 14.34 log10CFU/g); assay type: functional
# Staphylococcus aureus [3] = assay: Antibacterial activity against Staphylococcus aureus ATCC 33591 assessed as inhibition of bacterial growth at 0.5 times MIC measured at 0 to 12 hrs by growth kinetic assay; assay type: functional, organism-based; settings: time 0-12 hrs
# [4] = Toxicity in female Kunming mouse assessed as pathological changes in kidney at 500 to 2000 mg/kg, sc measured after 7 days by H and E staining based analysis; assay type: organism-based; settings: in vivo, 168 h, dose 500-2000 mg/kg, time 7 day
# Staphylococcus aureus [5] = assay: Antibacterial activity against methicillin-resistant Staphylococcus aureus ATCC 43300 assessed as inhibition of bacterial growth incubated for 14 hrs by two-fold serial dilution method; assay type: functional
# [6] = Acute toxicity in female Kunming mouse assessed as mortality at 500 to 2000 mg/kg, sc measured after 7 days; assay type: organism-based; settings: in vivo, 168 h, dose 500-2000 mg/kg, time 7 day
# Staphylococcus aureus [7] = assay: Antibacterial activity against Staphylococcus aureus ATCC 29213 assessed as inhibition of bacterial growth incubated for 14 hrs by two-fold serial dilution method; assay type: functional
# Staphylococcus aureus [8] = assay: Antibacterial activity against methicillin-resistant Staphylococcus aureus assessed as reduction in LDH activity incubated for 8 hrs; assay type: functional, organism-based; settings: dose 0.25-2 µg/ml
# Staphylococcus aureus [9] = assay: Antibacterial activity against methicillin-resistant Staphylococcus aureus assessed as increase MIC incubated for 6 hrs in presence of 70 to 100% sheep plasma; assay type: functional
# Staphylococcus aureus [10] = assay: Induction of oxidative damage in methicillin-resistant Staphylococcus aureus assessed as reduction in SOD activity incubated for 8 hrs; assay type: functional, organism-based; settings: dose 0.25-2 µg/ml
# [11] = Acute toxicity in female Kunming mouse assessed as aberrant appearance at 500 to 2000 mg/kg, sc measured after 7 days; assay type: organism-based; settings: in vivo, 168 h, dose 500-2000 mg/kg, time 7 day
# Staphylococcus aureus [12] = assay: Induction of morphological changes in methicillin-resistant Staphylococcus aureus assessed as appearance of holes in cells at 0.5 ug/ml incubated for 6 hrs by SEM analysis; assay type: functional, organism-based; settings: dose 0.5 µg/ml
# L02 = assay: Cytotoxicity against human L02 cells assessed as reduction in cell viability at 4 ug/ml incubated for 24 hrs by CCK-8 assay relative to control; assay type: toxicity, cell-based; settings: l02, 24 h, at 4 µg/mL
# Cell membrane = assay: Induction of cell membrane permeability in methicillin-resistant Staphylococcus aureus assessed as increase in protein leakage at 2 ug/ml incubated for 8 hrs by Bradford assay; assay type: subcellular; settings: dose 2.0 µg/ml
# Staphylococcus aureus [13] = assay: Induction of morphological changes in methicillin-resistant Staphylococcus aureus assessed as appearance of rough cell surface at 0.5 ug/ml incubated for 6 hrs by SEM analysis; assay type: functional, organism-based; settings: dose 0.5 µg/ml
# Calf thymus DNA = assay: Binding affinity to calf thymus DNA assessed as change in entropy at 3 uM by ITC assay; assay type: nucleic-acid assay; settings: Bos taurus
# Staphylococcus aureus [14] = assay: Antibiofilm activity against methicillin-resistant Staphylococcus aureus assessed as inhibition of biofilm formation at 2 ug/ml incubated for 24 hrs by crystal violet staining based analysis relative to control; assay type: functional; set-up: scale not given: the % may be the effect or the level left; settings: dose 2 µg/ml
# Staphylococcus aureus [15] = assay: Antibacterial activity against methicillin-resistant Staphylococcus aureus clinical isolate M-13 incubated for 14 hrs by two-fold serial dilution method; assay type: functional
# Staphylococcus aureus [16] = assay: Bactericidal activity against Staphylococcus aureus ATCC 33591 assessed as eradication of bacteria at 4 times MIC measured at 4 hrs by time-kill kinetic assay relative to control; assay type: functional
# Staphylococcus aureus [17] = assay: Antibacterial activity against methicillin-resistant Staphylococcus aureus clinical isolate M-19 incubated for 14 hrs by two-fold serial dilution method; assay type: functional
# [18] = Toxicity in female Kunming mouse assessed as abnormality inside skin at 5 to 20 mg/kg, sc measured after 48 hrs; assay type: organism-based; settings: in vivo, dose 5-20 mg/kg
# Staphylococcus aureus [19] = assay: Antibacterial activity against methicillin-resistant Staphylococcus aureus clinical isolate M-22 incubated for 14 hrs by two-fold serial dilution method; assay type: functional
# Staphylococcus aureus [20] = assay: In vivo antibacterial activity against methicillin-resistant Staphylococcus aureus infected in female Kunming mouse skin infection model assessed as reduction in bacterial load measured after 48 hrs; assay type: functional, organism-based; settings: dose 5-20 mg/kg
# Staphylococcus aureus [21] = assay: In vivo antibacterial activity against methicillin-resistant Staphylococcus aureus infected in female Kunming mouse skin infection model assessed as log reduction in bacterial load at 5 mg/kg measured after 48 hrs (reference value: 14.34 log10CFU/g); assay type: functional
# [22] = Toxicity in female Kunming mouse assessed as pathological changes in liver at 500 to 2000 mg/kg, sc measured after 7 days by H and E staining based analysis; assay type: organism-based; settings: in vivo, 168 h, dose 500-2000 mg/kg, time 7 day
# Staphylococcus aureus [23] = assay: In vivo antibacterial activity against methicillin-resistant Staphylococcus aureus infected in female Kunming mouse skin infection model assessed as reduction in inflammatory cells at 5 to 20 mg/kg measured after 48 hrs by H and E staining based analysis; assay type: functional, organism-based; settings: dose 5-20 mg/kg
# Staphylococcus aureus [24] = assay: Induction of morphological changes in methicillin-resistant Staphylococcus aureus assessed as appearance of fragments at 0.5 ug/ml incubated for 6 hrs by SEM analysis; assay type: functional, organism-based; settings: dose 0.5 µg/ml
# Staphylococcus aureus [25] = assay: Antibacterial activity against methicillin-resistant Staphylococcus aureus ATCC 33591 assessed as inhibition of bacterial growth incubated for 14 hrs by two-fold serial dilution method; assay type: functional
# Staphylococcus aureus [26] = assay: Antibacterial activity against methicillin-resistant Staphylococcus aureus assessed as reduction in metabolic activity at 2 ug/ml incubated for 8 hrs by alamar blue staining based analysis relative to control; assay type: functional; set-up: scale not given: the % may be the effect or the level left; settings: dose 2 µg/ml
# Staphylococcus aureus [27] = assay: Antibacterial activity against methicillin-resistant Staphylococcus aureus incubated for 6 hrs in presence of 10 to 60% sheep plasma; assay type: functional, organism-based
smiles,measurement,setting,value
C[n+]1ccc2c3ccccc3n(CCCCCCCCCCCn3c4ccccc4c4cc[n+](C)cc43)c2c1.[I-].[I-],fold change (FC),Staphylococcus aureus [1],4.34
same,Activity,Staphylococcus aureus [2],7.29 log10CFU/g
same,Activity,Staphylococcus aureus [3],Active
same,Activity,[4],Non-toxic
same,MIC,Staphylococcus aureus [5],1 µg/mL
same,Activity,[6],Non-toxic
same,MIC,Staphylococcus aureus [7],1 µg/mL
same,Activity,Staphylococcus aureus [8],Dose-dependent-effect
same,MIC,Staphylococcus aureus [9],0.5 µg/mL
same,Activity,Staphylococcus aureus [10],Dose-dependent-effect
same,Activity,[11],Non-toxic
same,Activity,Staphylococcus aureus [12],Active
same,Activity,L02,71.86%
same,Activity,Cell membrane,27.8 µg/mL
same,Activity,Staphylococcus aureus [13],Active
same,deltaS,Calf thymus DNA,99.2 J/mol.K
same,Activity,Staphylococcus aureus [14],79%
same,MIC,Staphylococcus aureus [15],1 µg/mL
same,Activity,Staphylococcus aureus [16],100%
same,MIC,Staphylococcus aureus [17],0.5 µg/mL
same,Activity,[18],Non-toxic
same,MIC,Staphylococcus aureus [19],0.5 µg/mL
same,Activity,Staphylococcus aureus [20],Dose-dependent-effect
same,Activity,Staphylococcus aureus [21],4.85 log10CFU/g
same,Activity,[22],Non-toxic
same,Activity,Staphylococcus aureus [23],Active
same,Activity,Staphylococcus aureus [24],Active
same,MIC,Staphylococcus aureus [25],0.25 µg/mL
same,Activity,Staphylococcus aureus [26],64.56%
same,Activity,Staphylococcus aureus [27],Active
